Measured values reported in publication PMC6825286 (Proceedings of the National Academy of Sciences of the …, 2019).

Biological target: T1, SghR (Agrobacterium tumefaciens, UniProt A0A2I4PGE9)
T1 sequence (A0A2I4PGE9 1-350): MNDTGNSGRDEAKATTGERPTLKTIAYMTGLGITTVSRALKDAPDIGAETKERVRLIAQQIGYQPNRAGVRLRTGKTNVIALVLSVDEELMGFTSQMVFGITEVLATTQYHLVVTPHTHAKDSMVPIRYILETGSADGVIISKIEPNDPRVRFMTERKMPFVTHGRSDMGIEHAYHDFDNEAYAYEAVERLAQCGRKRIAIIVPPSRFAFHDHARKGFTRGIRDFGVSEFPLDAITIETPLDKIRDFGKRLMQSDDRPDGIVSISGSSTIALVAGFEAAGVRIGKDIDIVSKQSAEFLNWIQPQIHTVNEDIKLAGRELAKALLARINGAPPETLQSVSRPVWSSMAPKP
Assay: EMSA, dissociation of SghR from biotin-labelled sghA promoter
Type: binding
Details: sucrose 50 and 500 µM; inducer that releases the repressor from DNA

SMILES: OC[C@H]1O[C@@](CO)(O[C@H]2O[C@H](CO)[C@@H](O)[C@H](O)[C@H]2O)[C@@H](O)[C@@H]1O [sucrose]
- EMSA, dissociation of SghR from biotin-labelled sghA promoter: gel shift analysis demonstrated that sucrose dissociated repressor SghR from the sghA promoter
